Source: article PMC9820478, “The Active Site of the Enzyme 10-Formyl-THFDH in the Honey Bee Apis mellifera—A Key Player in Formic Acid Detoxification” (International Journal of Molecular Sciences, 2022)

Legend:
Assay in all cases: NADPH formation at […] nm, plate reader, Michaelis-Menten nonlinear fit
Type in all cases: biochemical
Settings in all cases: 200 µM NADP+, 100 mM beta-mercaptoethanol, Tris/HCl pH 7.6, 30 °C; WT values said to accord with the authors' earlier paper [22]
[1] = biological target: T1, 10-formyl-THFDH (Amel_10-formyl-THFDH) (Apis mellifera, UniProt A0A7M7GVR6)
T1 construct: gene LOC551401; full-length ORF, N-terminal 6xHis tag (MHHHHHHAQLKVA...) not reported cleaved, baculovirus expression in Hi5 insect cells, Ni-NTA purified
T1 sequence (A0A7M7GVR6 entry or part of it): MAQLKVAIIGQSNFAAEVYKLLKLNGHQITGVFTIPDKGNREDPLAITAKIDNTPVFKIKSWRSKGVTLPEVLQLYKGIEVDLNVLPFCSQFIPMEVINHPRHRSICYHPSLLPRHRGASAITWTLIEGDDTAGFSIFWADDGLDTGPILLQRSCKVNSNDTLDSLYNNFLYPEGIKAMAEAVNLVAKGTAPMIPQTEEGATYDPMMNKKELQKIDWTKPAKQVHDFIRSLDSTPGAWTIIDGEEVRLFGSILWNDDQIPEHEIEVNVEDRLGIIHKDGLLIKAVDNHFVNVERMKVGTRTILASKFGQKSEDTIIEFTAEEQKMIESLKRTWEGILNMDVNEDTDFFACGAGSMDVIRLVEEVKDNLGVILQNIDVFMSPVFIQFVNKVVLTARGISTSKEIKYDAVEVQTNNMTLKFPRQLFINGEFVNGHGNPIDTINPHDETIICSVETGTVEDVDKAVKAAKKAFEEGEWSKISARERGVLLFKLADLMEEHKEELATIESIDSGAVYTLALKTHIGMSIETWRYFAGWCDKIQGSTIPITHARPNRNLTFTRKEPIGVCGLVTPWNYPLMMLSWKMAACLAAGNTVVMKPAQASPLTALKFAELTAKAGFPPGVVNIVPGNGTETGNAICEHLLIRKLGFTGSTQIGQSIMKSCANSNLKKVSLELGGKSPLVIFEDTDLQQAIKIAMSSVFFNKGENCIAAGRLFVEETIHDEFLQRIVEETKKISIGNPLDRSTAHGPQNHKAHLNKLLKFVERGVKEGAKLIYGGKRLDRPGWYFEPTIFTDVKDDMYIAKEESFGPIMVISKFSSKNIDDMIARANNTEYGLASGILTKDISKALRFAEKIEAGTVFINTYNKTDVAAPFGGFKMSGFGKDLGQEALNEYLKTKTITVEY

[2] = biological target: T1, 10-formyl-THFDH (Amel_10-formyl-THFDH); remark: listed apart in the source
[3] = biological target: T1, 10-formyl-THFDH (Amel_10-formyl-THFDH); remark: listed apart in the source
[4] = biological target: T1, 10-formyl-THFDH (Amel_10-formyl-THFDH); remark: listed apart in the source

SMILES: Nc1nc2c(c(=O)[nH]1)NC(CN(C=O)c1ccc(C(=O)N[C@@H](CCC(=O)O)C(=O)O)cc1)CN2 (stereo partly shown) [10-formyl-THF]
- NADPH formation at 340 nm, plate reader, Michaelis-Menten nonlinear fit [1]: The mutations lost their activity almost entirely
- NADPH formation at 340 nm, plate reader, Michaelis-Menten nonlinear fit [2]: The mutations lost their activity almost entirely
- Km [3]: 9.6 µM
- NADPH formation at 340 nm, plate reader, Michaelis-Menten nonlinear fit [4]: The mutations lost their activity almost entirely
